In US5624902A, “Peptide inhibitors of calmodulin” (Torrey Pines Institute for Molecular Studies, priority 1995, dated 1997):
Square brackets hold non-standard residues; d marks the D form. Peptide text beside a SMILES is read from it.

Target: calmodulin (Homo sapiens, UniProt P0DP23)
Assay: calcium-dependent phosphodiesterase assay (inhibition of calmodulin activity)
Assay type: biochemical
Details: for inhibition at 50 µM: inhibition of calmodulin activation of phosphodiesterase at 50 μM peptide, PDE without calmodulin = 100%, Calmo = 0%; for IC50: concentration inhibiting 50% of calmodulin activity, assayed at 75 μM, 50 μM and 12.5 μM

SMILES	inhibition at 50 µM [%]	IC50 [µM]
CC(=O)N[C@H](CC(C)C)C(=O)N[C@H](CCC(N)=O)C(=O)N[C@H](CCCNC(=N)N)C(=O)N[C@H](Cc1c[nH]cn1)C(=O)N[C@H](Cc1c[nH]cn1)C(=O)N[C@H](CCCNC(=N)N)C(N)=O [Ac-(D)Leu-(D)Gln-(D)Arg-(D)His-(D)His-(D)Arg-NH2] (Ac-[dL][dQ][dR][dH][dH][dR]-NH2)	63.2	–
CC(=O)N[C@H](CC(C)C)C(=O)N[C@H](CCC(N)=O)C(=O)N[C@H](CCCNC(=N)N)C(=O)N[C@H](Cc1c[nH]cn1)C(=O)N[C@H](Cc1c[nH]cn1)C(=O)N[C@H](Cc1c[nH]c2ccccc12)C(N)=O [Ac-(D)Leu-(D)Gln-(D)Arg-(D)His-(D)His-(D)Trp-NH2] (Ac-[dL][dQ][dR][dH][dH][dW]-NH2)	79	–
CC(=O)N[C@H](CC(C)C)C(=O)N[C@H](CCC(N)=O)C(=O)N[C@H](CCCNC(=N)N)C(=O)N[C@H](Cc1c[nH]cn1)C(=O)N[C@H](CC(C)C)C(=O)N[C@H](CCCNC(=N)N)C(N)=O [Ac-(D)Leu-(D)Gln-(D)Arg-(D)His-(D)Leu-(D)Arg-NH2] (Ac-[dL][dQ][dR][dH][dL][dR]-NH2)	64.5	–
CC[C@@H](C)[C@@H](NC(=O)[C@@H](CCCNC(=N)N)NC(=O)[C@@H](CCC(N)=O)NC(=O)[C@@H](CC(C)C)NC(C)=O)C(=O)N[C@H](Cc1c[nH]cn1)C(=O)N[C@H](CCCNC(=N)N)C(N)=O [Ac-(D)Leu-(D)Gln-(D)Arg-(D)Ile-(D)His-(D)Arg-NH2] (Ac-[dL][dQ][dR][dI][dH][dR]-NH2)	21.1	> 50
CC[C@@H](C)[C@@H](NC(=O)[C@@H](CCCNC(=N)N)NC(=O)[C@@H](CCC(N)=O)NC(=O)[C@@H](CC(C)C)NC(C)=O)C(=O)N[C@H](CC(C)C)C(=O)N[C@H](CCCNC(=N)N)C(N)=O [Ac-(D)Leu-(D)Gln-(D)Arg-(D)Ile-(D)Leu-(D)Arg-NH2] (Ac-[dL][dQ][dR][dI][dL][dR]-NH2)	-13.2	> 50
CC[C@@H](C)[C@@H](NC(=O)[C@@H](CCC(N)=O)NC(=O)[C@@H](CC(C)C)NC(C)=O)C(=O)N[C@H](Cc1c[nH]cn1)C(=O)N[C@H](Cc1c[nH]cn1)C(=O)N[C@H](CCCNC(=N)N)C(N)=O [Ac-(D)Leu-(D)Gln-(D)Ile-(D)His-(D)His-(D)Arg-NH2] (Ac-[dL][dQ][dI][dH][dH][dR]-NH2)	43.4	–
CC[C@@H](C)[C@@H](NC(=O)[C@@H](CCC(N)=O)NC(=O)[C@@H](CC(C)C)NC(C)=O)C(=O)N[C@H](Cc1c[nH]cn1)C(=O)N[C@H](Cc1c[nH]cn1)C(=O)N[C@H](Cc1c[nH]c2ccccc12)C(N)=O [Ac-(D)Leu-(D)Gln-(D)Ile-(D)His-(D)His-(D)Trp-NH2] (Ac-[dL][dQ][dI][dH][dH][dW]-NH2)	60.5	76
CC[C@@H](C)[C@@H](NC(=O)[C@@H](CCC(N)=O)NC(=O)[C@@H](CC(C)C)NC(C)=O)C(=O)N[C@H](Cc1c[nH]cn1)C(=O)N[C@H](CC(C)C)C(=O)N[C@H](CCCNC(=N)N)C(N)=O [Ac-(D)Leu-(D)Gln-(D)Ile-(D)His-(D)Leu-(D)Arg-NH2] (Ac-[dL][dQ][dI][dH][dL][dR]-NH2)	28.9	–
CC[C@@H](C)[C@@H](NC(=O)[C@@H](CCC(N)=O)NC(=O)[C@@H](CC(C)C)NC(C)=O)C(=O)N[C@@H](C(=O)N[C@H](Cc1c[nH]cn1)C(=O)N[C@H](CCCNC(=N)N)C(N)=O)[C@H](C)CC [Ac-(D)Leu-(D)Gln-(D)Ile-(D)Ile-(D)His-(D)Arg-NH2] (Ac-[dL][dQ][dI][dI][dH][dR]-NH2)	43.4	–
CC[C@@H](C)[C@@H](NC(=O)[C@@H](CCC(N)=O)NC(=O)[C@@H](CC(C)C)NC(C)=O)C(=O)N[C@@H](C(=O)N[C@H](Cc1c[nH]cn1)C(=O)N[C@H](Cc1c[nH]c2ccccc12)C(N)=O)[C@H](C)CC [Ac-(D)Leu-(D)Gln-(D)Ile-(D)Ile-(D)His-(D)Trp-NH2] (Ac-[dL][dQ][dI][dI][dH][dW]-NH2)	35.5	–
CC[C@@H](C)[C@@H](NC(=O)[C@@H](CCC(N)=O)NC(=O)[C@@H](CC(C)C)NC(C)=O)C(=O)N[C@@H](C(=O)N[C@H](CC(C)C)C(=O)N[C@H](CCCNC(=N)N)C(N)=O)[C@H](C)CC [Ac-(D)Leu-(D)Gln-(D)Ile-(D)Ile-(D)Leu-(D)Arg-NH2] (Ac-[dL][dQ][dI][dI][dL][dR]-NH2)	15.8	> 50
CC(=O)N[C@H](CC(C)C)C(=O)N[C@H](Cc1c[nH]c2ccccc12)C(=O)N[C@H](CCCNC(=N)N)C(=O)N[C@H](Cc1c[nH]cn1)C(=O)N[C@H](Cc1c[nH]cn1)C(=O)N[C@H](CCCNC(=N)N)C(N)=O [Ac-(D)Leu-(D)Trp-(D)Arg-(D)His-(D)His-(D)Arg-NH2] (Ac-[dL][dW][dR][dH][dH][dR]-NH2)	57.9	–

Now from value to molecule:

inhibition at 50 µM [%]	IC50 [µM]	SMILES
44.7	–	CC(=O)N[C@H](CC(C)C)C(=O)N[C@H](CCC(N)=O)C(=O)N[C@H](CCCNC(=N)N)C(=O)N[C@H](Cc1c[nH]cn1)C(=O)N[C@H](CC(C)C)C(=O)N[C@H](Cc1c[nH]c2ccccc12)C(N)=O [Ac-(D)Leu-(D)Gln-(D)Arg-(D)His-(D)Leu-(D)Trp-NH2] (Ac-[dL][dQ][dR][dH][dL][dW]-NH2)
34.2	40	CC[C@@H](C)[C@@H](NC(=O)[C@@H](CCCNC(=N)N)NC(=O)[C@@H](CCC(N)=O)NC(=O)[C@@H](CC(C)C)NC(C)=O)C(=O)N[C@H](Cc1c[nH]cn1)C(=O)N[C@H](Cc1c[nH]c2ccccc12)C(N)=O [Ac-(D)Leu-(D)Gln-(D)Arg-(D)Ile-(D)His-(D)Trp-NH2] (Ac-[dL][dQ][dR][dI][dH][dW]-NH2)
44.5	> 50	CC[C@@H](C)[C@@H](NC(=O)[C@@H](CCCNC(=N)N)NC(=O)[C@@H](CCC(N)=O)NC(=O)[C@@H](CC(C)C)NC(C)=O)C(=O)N[C@H](CC(C)C)C(=O)N[C@H](Cc1c[nH]c2ccccc12)C(N)=O [Ac-(D)Leu-(D)Gln-(D)Arg-(D)Ile-(D)Leu-(D)Trp-NH2] (Ac-[dL][dQ][dR][dI][dL][dW]-NH2)
46	–	CC[C@@H](C)[C@@H](NC(=O)[C@@H](CCC(N)=O)NC(=O)[C@@H](CC(C)C)NC(C)=O)C(=O)N[C@H](Cc1c[nH]cn1)C(=O)N[C@H](CC(C)C)C(=O)N[C@H](Cc1c[nH]c2ccccc12)C(N)=O [Ac-(D)Leu-(D)Gln-(D)Ile-(D)His-(D)Leu-(D)Trp-NH2] (Ac-[dL][dQ][dI][dH][dL][dW]-NH2)
47.4	> 50	CC[C@@H](C)[C@@H](NC(=O)[C@@H](CCC(N)=O)NC(=O)[C@@H](CC(C)C)NC(C)=O)C(=O)N[C@@H](C(=O)N[C@H](CC(C)C)C(=O)N[C@H](Cc1c[nH]c2ccccc12)C(N)=O)[C@H](C)CC [Ac-(D)Leu-(D)Gln-(D)Ile-(D)Ile-(D)Leu-(D)Trp-NH2] (Ac-[dL][dQ][dI][dI][dL][dW]-NH2)
36.8	–	CC(=O)N[C@H](CC(C)C)C(=O)N[C@H](Cc1c[nH]c2ccccc12)C(=O)N[C@H](CCCNC(=N)N)C(=O)N[C@H](Cc1c[nH]cn1)C(=O)N[C@H](Cc1c[nH]cn1)C(=O)N[C@H](Cc1c[nH]c2ccccc12)C(N)=O [Ac-(D)Leu-(D)Trp-(D)Arg-(D)His-(D)His-(D)Trp-NH2] (Ac-[dL][dW][dR][dH][dH][dW]-NH2)
39.5	> 50	CC(=O)N[C@H](CC(C)C)C(=O)N[C@H](Cc1c[nH]c2ccccc12)C(=O)N[C@H](CCCNC(=N)N)C(=O)N[C@H](Cc1c[nH]cn1)C(=O)N[C@H](CC(C)C)C(=O)N[C@H](CCCNC(=N)N)C(N)=O [Ac-(D)Leu-(D)Trp-(D)Arg-(D)His-(D)Leu-(D)Arg--NH2] (Ac-[dL][dW][dR][dH][dL][dR]-NH2)
90.8	≤ 10	CC(=O)N[C@H](CC(C)C)C(=O)N[C@H](Cc1c[nH]c2ccccc12)C(=O)N[C@H](CCCNC(=N)N)C(=O)N[C@H](Cc1c[nH]cn1)C(=O)N[C@H](CC(C)C)C(=O)N[C@H](Cc1c[nH]c2ccccc12)C(N)=O [Ac-(D)Leu-(D)Trp-(D)Arg-(D)His-(D)Leu-(D)Trp-NH2] (Ac-[dL][dW][dR][dH][dL][dW]-NH2)
68.4	32	CC[C@@H](C)[C@@H](NC(=O)[C@@H](CCCNC(=N)N)NC(=O)[C@@H](Cc1c[nH]c2ccccc12)NC(=O)[C@@H](CC(C)C)NC(C)=O)C(=O)N[C@H](Cc1c[nH]cn1)C(=O)N[C@H](CCCNC(=N)N)C(N)=O [Ac-(D)Leu-(D)Trp-(D)Arg-(D)Ile-(D)His-(D)Arg-NH2] (Ac-[dL][dW][dR][dI][dH][dR]-NH2)
52.6	–	CC[C@@H](C)[C@@H](NC(=O)[C@@H](CCCNC(=N)N)NC(=O)[C@@H](Cc1c[nH]c2ccccc12)NC(=O)[C@@H](CC(C)C)NC(C)=O)C(=O)N[C@H](Cc1c[nH]cn1)C(=O)N[C@H](Cc1c[nH]c2ccccc12)C(N)=O [Ac-(D)Leu-(D)Trp-(D)Arg-(D)Ile-(D)His-(D)Trp-NH2] (Ac-[dL][dW][dR][dI][dH][dW]-NH2)
107	15	CC[C@@H](C)[C@@H](NC(=O)[C@@H](CCCNC(=N)N)NC(=O)[C@@H](Cc1c[nH]c2ccccc12)NC(=O)[C@@H](CC(C)C)NC(C)=O)C(=O)N[C@H](CC(C)C)C(=O)N[C@H](CCCNC(=N)N)C(N)=O [Ac-(D)Leu-(D)Trp-(D)Arg-(D)Ile-(D)Leu-(D)Arg-NH2] (Ac-[dL][dW][dR][dI][dL][dR]-NH2)
101	15	CC[C@@H](C)[C@@H](NC(=O)[C@@H](CCCNC(=N)N)NC(=O)[C@@H](Cc1c[nH]c2ccccc12)NC(=O)[C@@H](CC(C)C)NC(C)=O)C(=O)N[C@H](CC(C)C)C(=O)N[C@H](Cc1c[nH]c2ccccc12)C(N)=O [Ac-(D)Leu-(D)Trp-(D)Arg-(D)Ile-(D)Leu-(D)Trp-NH2] (Ac-[dL][dW][dR][dI][dL][dW]-NH2)
103	24	CC[C@@H](C)[C@@H](NC(=O)[C@@H](Cc1c[nH]c2ccccc12)NC(=O)[C@@H](CC(C)C)NC(C)=O)C(=O)N[C@H](Cc1c[nH]cn1)C(=O)N[C@H](Cc1c[nH]cn1)C(=O)N[C@H](Cc1c[nH]c2ccccc12)C(N)=O [Ac-(D)Leu-(D)Trp-(D)Ile-(D)His-(D)His-(D)Trp-NH2] (Ac-[dL][dW][dI][dH][dH][dW]-NH2)
